Earlier results in article PMC9160825, “Structural and Functional Characterization of a Novel Scorpion Toxin that Inhibits NaV1.8 via Interactions With the DI Voltage Sensor and DII Pore Module” (Frontiers in Pharmacology, 2022).

Legend:
[1] = tested on: DRG nociceptive sensory neurons
Excerpt: In addition to modifying activation and fast inactivation gating, NaTx36 modifies slow inactivation gating in OtNaV1.8 by substantially shifting the voltage dependence to hyperpolarized membrane potentials (Figure 5B). Slow inactivation differs from fast inactivation in voltage- and time-dependent properties. While fast inactivation inhibits NaV excitability within milliseconds of action potential firing, slow inactivation develops in response to prolonged membrane depolarization (tens of seconds) or a series of action potentials, inhibiting NaV excitability over longer timescales (seconds to ...

[2] = tested on: sodium channel DI voltage sensor; set-up: method as in Xiao et al., 2014; conditions: ref Xiao et al., 2014
house mouse NaV1.8 = conditions: ref Zhang and Bean, 2021

For `COc1cc(CNC(=O)CCCC/C=C/C(C)C)ccc1O` [capsaicin], the “NaV1.8 TTX-R Na+ currents and action potential firing” value ([1]; sustained excitation of DRG membranes, ref Blair and Bean, 2003) is listed as “caused a decrease in NaV1.8 TTX-R Na^+ currents and action potential firing”.
In the case of ProTx-II: spider toxin, the “effect on gating pore currents via DI voltage sensor” value [2] is listed as “modify the voltage dependence of gating pore currents”.
For `C=C(C)[C@@H]1CCC(C)=C[C@H]1c1c(O)cc(CCCCC)cc1O` [CBD, cannabidiol], the “inhibition of house mouse NaV1.8” value (house mouse NaV1.8) is given as “inhibited house mouse NaV1.8 in a state-dependent manner” and the “repetitive action potential firing and DRG neuronal excitability” value ([1]; ref Zhang and Bean, 2021) is given as “reduces repetitive action potential firing and DRG neuronal excitability”.
